Data set [1] concerns Helicoverpa armigera. As to the kind of experiment: Determination of activity against Helicoverpa armigera, leaf dipping method (IRAC). The data set is classed as in vivo. The settings on record: for insecticidal activity (mortality): leaf dipping, Brassica oleracea leaf, 72 hour. From the text: Determination of Activity Against Helicoverpa armigera
Leaf dipping method (proposed by Insecticide Resistance Action Committee, IRAC) was adopted: a leaf of Brassica oleracea was clamped by a tweezer and dipped into an insecticide solution having a certain concentration to be tested for 3 to 5 seconds, the excessive solution was threw off, one leaf at each time, three leaves for each sample. The leaves were placed onto a treatment paper according to sequence of sample marking and air-dried naturally, then put into a marked straight tube of 10 cm length, […] in, the tube opening was covered by a gauze, and placed into a standard treatment chamber, the result was checked and the mortality was calculated at 72 hour.
(§1) Some of the compounds in Example 1 were used to conduct the test, and a control compound was selected to conduct an indoor insecticidal activity data (%, concentration unit: ppm) determination test under the same condition, the results of the test was shown in Table 2.

Data set [2] relates to Ostrinia furnacalis. Briefly: Determination of activity against Ostrinia furnacalis, leaf dipping method. The data set is classed as in vivo. The conditions noted are these: for insecticidal activity (mortality): leaf dipping, Brassica oleracea leaf, 72 hours.
Source text: Determination of Activity Against Ostrinia furnacalis
Leaf dipping method was adopted, a leaf of Brassica oleracea was clamped by a tweezer, and dipped in insecticide solution having a certain concentration for 3 to 5 seconds, the excessive solution was threw off, one leaf at each time, and three leaves for each sample. The leaves were placed onto a treatment paper according to the sequence of sample marking and air-dried naturally, then put into a marked straight tube of 10 cm length, and 30 Ostrinia furnacalis larvae being […] were place in, the tube opening was covered by a gauze, and placed in a standard treatment chamber, the result was checked and the mortality was calculated at 72 hours.
as §1

[3] abbreviates: Helicoverpa armigera, in Brassica oleracea, foliar, 72 h, read-out: insecticidal activity (mortality).
The mark [4] stands for this setting: Ostrinia furnacalis, in Brassica oleracea, foliar, 72 h, read-out: insecticidal activity (mortality).

As a reminder, the mortality is the percentage killed.

As to `CNC(=O)c1cc(Cl)cc(C)c1NC(=O)c1cc(Br)nn1-c1ncccc1Cl` [KC], in data set [1] (setting [3]), the mortality at 0.016 ppm came to 0%, the mortality at 0.031 ppm came out at 0%, the mortality at 0.0625 ppm stood at 30% and the mortality at 0.125 ppm was 55%. In data set [1] (setting [3]), the mortality at 0.25 ppm turned out to be 70% and the mortality at 0.5 ppm amounted to 85%. For the same molecule, in data set [2] (setting [4]), the mortality at 0.016 ppm turned out to be 0%, the mortality at 0.031 ppm is 30%, the mortality at 0.0625 ppm was found to be 55% and the mortality at 0.125 ppm is 75%. In addition, in data set [2] (setting [4]), the mortality at 0.25 ppm came out at 100% and the mortality at 0.5 ppm turned out to be 100%.
For `CC(C)(C)NC(=O)c1cc(Cl)cc(Cl)c1NC(=O)c1cc(Br)nn1-c1ncccc1Cl` [Compound I-24, 1-(3-chloropyridine-2-yl)-3-bromo-N-(2,4-dichloro-6-tert-butylaminocarbonyl)phenyl-1H-pyrazole-5-formamide], the “insecticidal activity (mortality)” value in data set [1] (0.016 ppm) was found to be 60%; in data set [1] (0.031 ppm), 80%; in data set [1] (0.0625 ppm), 100%; in data set [1] (0.125 ppm), 100%; in data set [1] (0.25 ppm), 100%; in data set [1] (0.5 ppm), 100%. Moreover, the “insecticidal activity (mortality)” value in data set [2] (0.031 ppm), in data set [2] (0.0625 ppm), in data set [2] (0.125 ppm), in data set [2] (0.25 ppm) and in data set [2] (0.5 ppm) was 100% each time.

These data come from US9301529B2, “Polysubstituted pyridyl pyrazolecarboxamide and preparation method and use thereof” (ZHAOQING ZHENGE BIOLOGICAL TECHNOLOGY CO., LTD, priority 2014, dated 2016).
